According to patent publication US20260097022A1, “COMPOUNDS AND USES THEREOF” (Integrated Biosciences, Inc., priority 2023, published 2026):

Tests used:
[1] = tested on: etoposide-treated IMR-90 cells; test: Etoposide-induced senescence model, resazurin cell viability (screen and dose-response); assay type: cell-based, human; conditions: for senolytic activity in screen: 3 days; for Therapeutic Index (TI): etoposide-induced senescence model, ratio of IC50 values between etoposide- and DMSO-treated IMR-90 fibroblasts
Outline: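 IMR-90 fibroblasts made senescent with 50 μM etoposide for 2 days, then 4 days recovery before plating. Compounds at 10 μM or 1 μM final (screen) or three-fold dilutions (1% DMSO) for 3 days, then 0.15 mM resazurin 1 day, fluorescence 550/590 nm. Viability expressed as fraction of untreated controls; biological duplicates.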

HEK293 cells = test: Cytotoxicity against HEK293 cells (resazurin); assay type: cell-based, human; conditions: 3 days treatment; curve-fitting, two biological replicates
Method: (§1) Measuring cytotoxicity against HepG2 and HEK293 cells. Cytotoxicity in human embryonic kidney (HEK293) and liver carcinoma (HepG2) cells was assayed as above using a resazurin assay. Cells were obtained from ATCC (ATCC CRL-1573 and HB-8065), passaged <10 times, and grown in Dulbecco's modification of Eagle's Medium (DMEM: Corning 10^−013-CV) supplemented with 10% FBS and 1% penicillin-streptomycin. 99 μL of cells were plated into each well of a 96-well clear flat-bottom, black polystyrene tissue-culture-treated plate at a density of ˜10+ cells/well, and plates were incubated overnight for adhesion. The day after plating. 1 μL of each compound, prepared as two-fold serial dilutions of 5 mM stock solutions in DMSO, was added to each well. Cells were incubated for 3 days, after which resazurin was added to each well to a final concentration of 0.15 mM. After an additional 1 day of incubation, the fluorescence excitation/emission at 550/590 nm was read using a SpectraMax M3 plate reader. Experiments were performed in biological duplicate. IC50 values were determined by normalizing with respect to the fluorescence intensity values of untreated control cells on day 3, as described in Calculation of cellular viability values in dose-response curves above.

HepG2 cells = test: Cytotoxicity against HepG2 cells (resazurin); assay type: cell-based, human; conditions: 3 days treatment; curve-fitting, two biological replicates
Method: as §1

human red blood cells = test: Hemolysis assay; assay type: cell-based
Method: Hemolysis assay. Whole human blood containing EDTA (Innovative Resarch IWB1K2E) was centrifuged at 120×g at 4° C., for 5 min and resuspended in Dulbecco's PBS (DPBS: VWR 02-0119-0500). These washing steps were repeated until the supernatant was clear. Red blood cells were then resuspended in DPBS to 5×10^8 cells/mL, and 100 μL of cells was plated into each well of a 96-well clear round-bottom plate. Compounds were added to the indicated concentrations, and DMSO was used as a vehicle. Samples were incubated for 1 h at 37° C., without shaking, after which plates were centrifuged at 1500×g at room temperature for 5 min to pellet cells. 60 μL of the supernatant from each sample was then transferred to a 96-well clear flat-bottom plate, and the absorbance was read at 405 nm using a SpectraMax M3 plate reader to quantify the amount of soluble hemoglobin. Fractional hemolysis was determined by linearly interpolating absorbance values with respect to a positive control (saturation with 10% Triton X-100) and a negative control (1% DMSO vehicle). Results are depicted in FIG. 14.

[2] = tested on: Salmonella typhimurium TA100; test: Genotoxicity assay (Ames 384-ISO test); assay type: cell-based; conditions: 100 μM
Method: Genotoxicity assay. An Ames 384-ISO test (6041-1S) from Environmental Bio-Detection Products, Inc, was used following the manufacturer's instructions. Briefly. Salmonella typhimurium TA100 was grown overnight (16-18 h) at 37° C., with shaking at 300 rpm and treated with the provided exposure media and compound samples at the final concentrations indicated. Treatment with the provided 4-nitroquinoline 1-oxide (4NQO), a mutagen, was used as a positive control. Cells were then added to the provided reversion solution, and each sample was split into 48 wells of 384-well plates. Plates were incubated at 37° C., for 2 days, after which the number of revertant (yellow-colored) wells corresponding to each sample was counted. […] An overnight bacterial culture was diluted 1:10.000 in LB medium (Becton Dickinson 244620) and plated using 99 μL working volumes into the wells of a clear flat-bottom 96-well plate. One μL of two-fold dilutions of each test compound in DMSO, starting from a final concentration of 500 μM, was added across wells, and plates were sealed and incubated overnight at 37° C., to determine bacterial growth.

primary human T-cells = test: Cytotoxicity to T-cells in vitro; assay type: cell-based; conditions: for T-cell death: at about 0.1 μM; for IC50: primary human T-cells, read-out: T-cell cytotoxicity IC50
[3] = cited from earlier work
[4] = Phase II, lung carcinoma; cited from earlier work
Mcl-1 = Mcl-1 (Homo sapiens, UniProt Q07820); test: Mcl-1 TR-FRET; assay type: binding
Mcl-1, sequence (Q07820 whole entry, species assumed): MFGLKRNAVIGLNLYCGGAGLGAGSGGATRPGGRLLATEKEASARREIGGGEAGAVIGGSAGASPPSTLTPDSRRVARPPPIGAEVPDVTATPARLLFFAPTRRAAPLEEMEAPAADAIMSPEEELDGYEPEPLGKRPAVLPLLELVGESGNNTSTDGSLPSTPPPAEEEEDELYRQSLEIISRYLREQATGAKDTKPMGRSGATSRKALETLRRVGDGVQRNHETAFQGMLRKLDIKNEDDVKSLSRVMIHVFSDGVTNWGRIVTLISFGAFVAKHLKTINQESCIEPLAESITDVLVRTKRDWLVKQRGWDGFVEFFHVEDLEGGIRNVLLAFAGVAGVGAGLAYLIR

ex vivo human skin = test: Ex vivo aged human skin model
Method: IBX-100 was first tested in ex vivo skin for safety.
IBX-100 was further tested in ex vivo skin for efficacy, p16 mRNA expression was measured after 5 days of topical application of IBX-100 on an older subject (e.g. Person, Fitzpatrick type 2) skin, and compared to vehicle values.

[5] = tested on: wounded ex vivo human skin; test: Ex vivo wounded skin model
Method: For the younger skin sample, RNA expression levels of collagen (Col1a1) and matrix metallopeptidase 9 (MMP9) were additionally measured. Higher levels of Col1a1 may be associated with senescence and scarring.
IBX-100 was tested again for safety in a combination dosing regimen. IBX-100 was formulated as a 10% solution in 100% DMSO and applied directly by pipetting 5 μL on wounded younger skin (e.g. Person, Fitzpatrick type 2-3). Additionally, IBX-100 was administered to the culture medium at a final concentration of about 100 μg/mL, by adding 1 μL of a 100 mg/mL solution in DMSO to 1 mL of culture media, as a model of systemic administration.
To test efficacy. IBX-100 was applied both topically and systemically as described above every 24 h for 5 days. On day 6, the skin biopsies were excised, and p16. Col1a1, and MMP9 RNA expression was measured inside each wound. Compared to vehicle (e.g., DMSO) values, p16. Col1a1, and MMP9 expression was decreased, on average, by ˜30%. ˜ 60%, and ˜60%, respectively, with administration of IBX-100 (FIG. 19).

[6] = Cytotoxicity to T-cells in vitro; assay type: cell-based, human; conditions: human, primary human T-cells; read-out: T-cell cytotoxicity IC50
[7] = 10 μM, active: control viability >0.5, Snc/control ratio <0.7
[8] = topical and systemic every 24 h for 5 days, day 6

For CN(C)CC[C@H](CSc1ccccc1)Nc1ccc(S(=O)(=O)NC(=O)c2ccc(N3CCN(Cc4ccccc4-c4ccc(Cl)cc4)CC3)cc2)cc1[N+](=O)[O-] [ABT-737, reference compound], which “senolytic activity in screen” value ([1]; 1 μM) is on record?
The value was “inactive”.

And the “senolytic activity in screen” value [1, 7]?
The value was “active”.

What about the IC50 (HEK293 cells) of the same molecule?
The IC50 was 28.8 µM.

And the IC50 (HepG2 cells)?
Its IC50 is 132 µM.

What about the hemolysis (human red blood cells; up to a final concentration of 100 μM, 1 h at 37° C.) of the same molecule?
Its hemolysis is “did not induce significant hemolysis”.

And the “reversion of bacterial cultures (mutagenic potential)” value [2]?
Its value is “did not induce significant reversion”.

What about the T-cell death (primary human T-cells) of the same molecule?
The T-cell death was “substantial cell death”.

And the IC50 (primary human T-cells)?
The IC50 was about 1 µM.

What about the bioavailability [3] of the same molecule?
Its bioavailability is “limited bioavailability”.

With O=c1c(O)c(-c2ccc(O)c(O)c2)oc2cc(O)ccc12 [fisetin] as the molecule, how does the bioavailability [3] read?
Its bioavailability is “limited bioavailability”.

For Triton X-100 [reference compound], which hemolysis (human red blood cells; concentrations ≥0.01% (w/w), positive control) is on record?
The hemolysis was “substantial hemolysis”.

With CC1(C)CCC(c2ccc(Cl)cc2)=C(CN2CCN(c3ccc(C(=O)NS(=O)(=O)c4ccc(N[C@H](CCN5CCOCC5)CSc5ccccc5)c(S(=O)(=O)C(F)(F)F)c4)cc3)CC2)C1 [ABT-263] as the molecule, how does the “senolytic activity in screen” value ([1]; 1 μM) read?
The value was “inactive”.

What about the “senolytic activity in screen” value [1, 7] of the same molecule?
The value was “active”.

And the T-cell death (primary human T-cells)?
The T-cell death was “substantial cell death”.

And the IC50 (primary human T-cells)?
The IC50 was about 1 µM.

What about the “side effects in patients” value [4] of the same molecule?
The value was “thrombocytopenia and neutropenia were common side effects”.

For CCOc1ccc(NC(=O)CSc2nc3ccc(NC(=O)c4ccccc4C)cc3s2)cc1 [compound 1], which IC50 (Mcl-1) is on record?
The IC50 was over 100 µM.

And the “safety in ex vivo skin” value (ex vivo human skin; 5% topical ointment in 10% DMSO: 45% PEG300:45% water, older and younger subject skin)?
Its value is “No adverse effects”.

And the “average decrease in p16 mRNA expression compared to vehicle” value (ex vivo human skin; 5 days of topical application, older subject skin, three samples)?
Its value is “approximately 40%”.

What about the “safety in wounded ex vivo skin” value ([5]; 10% solution in DMSO topically and about 100 μg/mL in culture medium) of the same molecule?
Its value is “no adverse effects”.

What about the “average decrease in Col1a1 RNA expression inside wound compared to vehicle” value [5, 8] of the same molecule?
Its value is about 60%.

And the “average decrease in MMP9 RNA expression inside wound compared to vehicle” value [5, 8]?
The value was about 60%.

What about the “average decrease in p16 RNA expression inside wound compared to vehicle” value [5, 8] of the same molecule?
The value was about 30%.

And the IC50 [6]?
The IC50 was over 100 µM.

Which results are given for CC1(C)CCC(CN2CCN(c3ccc(C(=O)NS(=O)(=O)c4ccc(NCC5CCOCC5)c([N+](=O)[O-])c4)c(Oc4cnc5[nH]ccc5c4)c3)CC2)=C(c2ccc(Cl)cc2)C1 [ABT-199]?
T-cell death (primary human T-cells): substantial cell death; IC50 (primary human T-cells): ~1 µM

With Cc1cccc(NC(=O)CSc2nc3ccc(NC(=O)c4ccccc4F)cc3s2)c1C [compound 27] as the molecule, how does the “Therapeutic Index (TI)” value [1] read?
Its value is “+++ (compounds with a TI of >5 were labeled as +++)”.

For CCCCOc1ccc(NC(=O)CSc2nc3ccc(NC(=O)c4ccccc4)cc3s2)cc1 [compound 89], which “Therapeutic Index (TI)” value [1] is on record?
The value was “++ (compounds with a TI of 1 to 5 were labelled as ++)”.

Which “senolytic activity in screen” value ([1]; 1 μM) does the source give for Cc1c(-c2ccc(N3CCc4cccc(C(=O)Nc5nc6ccccc6s5)c4C3)nc2C(=O)O)cnn1CC12CC3CC(CC(C3)C1)C2 [A-1331852, reference compound] here?
The value was “inactive”.

And the “senolytic activity in screen” value [1, 7]?
Its value is “active”.

Which “Therapeutic Index (TI)” value [1] does the source give for COc1ccc(NC(=O)CSc2nc3ccc(NC(=O)c4ccccc4Cl)cc3s2)cc1 [compound 66] here?
Its value is “++ (compounds with a TI of 1 to 5 were labelled as ++)”.

For COc1ccc(C(=O)Nc2ccc3nc(SCC(=O)Nc4ccccc4)sc3c2)c(F)c1 [compound 172], which “Therapeutic Index (TI)” value [1] is on record?
The value was “+++ (compounds with a TI of >5 were labeled as +++)”.

With COc1ccccc1C(=O)Nc1ccc2nc(SCC(=O)N(C)c3ccccc3)sc2c1 [compound 71] as the molecule, how does the “Therapeutic Index (TI)” value [1] read?
The value was “++ (compounds with a TI of 1 to 5 were labelled as ++)”.

For O=C(CSc1nc2ccc(NC(=O)c3ccc(Cl)cc3Cl)cc2s1)Nc1ccccc1 [compound 4], which “Therapeutic Index (TI)” value [1] is on record?
The value was “+++ (compounds with a TI of >5 were labeled as +++)”.
